Test results published in ChEMBL document CHEMBL1141046, “Design, synthesis and structure-activity relationship of a series of fragment analogues of antistasin (ATS) and ghilantens (GLS)” (Bioorg Med Chem Lett, 2005).
One block for each compound: values may come before it. Square brackets hold non-standard residues; d marks the D form. Peptide text beside a SMILES is read from it. Orn = NCCC[C@H](N)C(=O)O

How the values were obtained:
[1] = Anticoagulant activity of compound in respect to APTT in human poor platelet plasma (PPP) at a concentration 523.64(nM) of was measured by the Amelung coagulometer KC4A apparatus; format: functional
Homo sapiens = organism: Homo sapiens; experiment: Anticoagulant activity of compound in respect to APTT in human poor platelet plasma (PPP) at a concentration 41.89(nM) of was measured by the Amelung coagulometer KC4A apparatus; format: functional, cell-free
[2] = Anticoagulant activity of compound in respect to APTT in human poor platelet plasma (PPP) at a concentration 272.29(nM) of was measured by the Amelung coagulometer KC4A apparatus; format: functional
[3] = Anticoagulant activity of compound in respect to APTT in human poor platelet plasma (PPP) at a concentration 802.24(nM) of was measured by the Amelung coagulometer KC4A apparatus; format: functional
[4] = Concentration for doublingAPTT clotting times of human plasma; format: functional, cell-free
[5] = Anticoagulant activity of compound in respect to APTT in human poor platelet plasma (PPP) at 418.91 nM concentration was measured by the Amelung coagulometer KC4A apparatus; format: functional
[6] = Anticoagulant activity of compound in respect to APTT in human poor platelet plasma (PPP) at 646.61 nM concentration was measured by the Amelung coagulometer KC4A apparatus; format: functional
[7] = Anticoagulant activity of compound in respect to APTT in human poor platelet plasma (PPP) at 1077.7 nM concentration was measured by the Amelung coagulometer KC4A apparatus; format: functional
[8] = Anticoagulant activity of compound in respect to APTT in human poor platelet plasma (PPP) at 211 nM concentration was measured by the Amelung coagulometer KC4A apparatus; format: functional
[9] = Anticoagulant activity of compound in respect to APTT in human poor platelet plasma (PPP) at 528.94 nM concentration was measured by the Amelung coagulometer KC4A apparatus; format: functional
[10] = Anticoagulant activity of compound in respect to APTT in human poor platelet plasma (PPP) at 881.56 nM concentration was measured by the Amelung coagulometer KC4A apparatus; format: functional
[11] = Anticoagulant activity of compound in respect to APTT in human poor platelet plasma (PPP) at 705.25 nM concentration was measured by the Amelung coagulometer KC4A apparatus; format: functional
[12] = Anticoagulant activity of compound in respect to APTT in human poor platelet plasma (PPP) at 1785.28 nM concentration was measured by the Amelung coagulometer KC4A apparatus; format: functional
[13] = Anticoagulant activity of compound in respect to APTT in human poor platelet plasma (PPP) at 1338.96 nM concentration was measured by the Amelung coagulometer KC4A apparatus; format: functional
[14] = Anticoagulant activity of compound in respect to APTT in human poor platelet plasma (PPP) at 1562.12 nM concentration was measured by the Amelung coagulometer KC4A apparatus; format: functional
[15] = Anticoagulant activity of compound in respect to APTT in human poor platelet plasma (PPP) at 771 nM concentration was measured by the Amelung coagulometer KC4A apparatus; format: functional
[16] = Anticoagulant activity of compound in respect to APTT in human poor platelet plasma (PPP) at 1156.6 nM concentration was measured by the Amelung coagulometer KC4A apparatus; format: functional
[17] = Anticoagulant activity of compound in respect to APTT in human poor platelet plasma (PPP) at 2901.75 nM concentration was measured by the Amelung coagulometer KC4A apparatus; format: functional
[18] = Anticoagulant activity of compound in respect to APTT in human poor platelet plasma (PPP) at 2720.39 nM concentration was measured by the Amelung coagulometer KC4A apparatus; format: functional
[19] = Anticoagulant activity of compound in respect to APTT in human poor platelet plasma (PPP) at 2992.43 nM concentration was measured by the Amelung coagulometer KC4A apparatus; format: functional
[20] = Anticoagulant activity of compound in respect to APTT in human poor platelet plasma (PPP) at 906.8 nM concentration was measured by the Amelung coagulometer KC4A apparatus; format: functional
[21] = Anticoagulant activity of compound in respect to APTT in human poor platelet plasma (PPP) at 2266.99 nM concentration was measured by the Amelung coagulometer KC4A apparatus; format: functional
[22] = Anticoagulant activity of compound in respect to APTT in human poor platelet plasma (PPP) at 1813.59 nM concentration was measured by the Amelung coagulometer KC4A apparatus; format: functional
[23] = Anticoagulant activity of compound in respect to APTT in human poor platelet plasma (PPP) at 1117.95 nM concentration was measured by the Amelung coagulometer KC4A apparatus; format: functional
[24] = Anticoagulant activity of compound in respect to APTT in human poor platelet plasma (PPP) at 2235.9 nM concentration was measured by the Amelung coagulometer KC4A apparatus; format: functional
[25] = Anticoagulant activity of compound in respect to APTT in human poor platelet plasma (PPP) at 290 nM concentration was measured by the Amelung coagulometer KC4A apparatus; format: functional
[26] = Anticoagulant activity of compound in respect to APTT in human poor platelet plasma (PPP) at 1043.42 nM concentration was measured by the Amelung coagulometer KC4A apparatus; format: functional
[27] = Anticoagulant activity of compound in respect to APTT in human poor platelet plasma (PPP) at 1192 nM concentration was measured by the Amelung coagulometer KC4A apparatus; format: functional
[28] = Anticoagulant activity of compound in respect to APTT in human poor platelet plasma (PPP) at 894 nM concentration was measured by the Amelung coagulometer KC4A apparatus; format: functional

- IC50 [4]: 1560 nM
Compound: H-PKRKLVP-OH [listing 1 of 2 here]

- IC50 [4]: 705 nM
Compound: CC(C)C[C@H](NC(=O)[C@H](CCCCN)NC(=O)[C@H](CCCN=C(N)N)NC(=O)[C@H](CCCCN)NC(=O)[C@@H]1CCCN1C(=O)[C@@H](N)CCCN)C(=O)N[C@H](C(=O)N1CCC[C@H]1C(N)=O)C(C)C (H-[Orn]PKRKLVP-NH2) [listing 2 of 2 here]

- IC50 [4]: 2900 nM
Compound: H-PKRKLVP-NH2 [listing 2 of 2 here]

- IC50 [4]: 1120 nM
Compound: H-KPKRKLVP-OH
- APTT [23]: 30 s
- APTT [24]: 122.8 s
- APTT [25]: 6.7 s
- APTT [26]: 24.1 s
- APTT [27]: 50.9 s
- APTT [28]: 21.6 s

More lines, now with the values behind:

Compound: H-RPKLVP-OH
- APTT [1]: 15.6 s
- APTT (Homo sapiens): No activity
- APTT [2]: 3.8 s
- APTT [3]: 62.4 s
- IC50 [4]: 802 nM
- APTT [5]: 5.5 s

Compound: CC(C)C[C@H](NC(=O)[C@H](CCCCN)NC(=O)[C@H](CCCN=C(N)N)NC(=O)[C@H](CCCCN)NC(=O)[C@@H]1CCCN1C(=O)[C@@H](N)CCCN)C(=O)N[C@H](C(=O)N1CCC[C@H]1C(=O)O)C(C)C (H-[Orn]PKRKLVP-OH) [listing 1 of 2 here]
- IC50 [4]: 1160 nM

Compound: H-KPKRKLVP-NH2
- APTT [6]: 28.9 s
- APTT [7]: 57.9 s
- IC50 [4]: 647 nM
- APTT [8]: 8.9 s

Compound: CC(C)C[C@H](NC(=O)[C@H](CCCCN)NC(=O)[C@H](CCCN=C(N)N)NC(=O)[C@H](CCCCN)NC(=O)[C@@H]1CCCN1C(=O)[C@@H](N)CCCN)C(=O)N[C@H](C(=O)N1CCC[C@H]1C(N)=O)C(C)C (H-[Orn]PKRKLVP-NH2) [listing 1 of 2 here]
- APTT [9]: 0.5 s
- APTT [10]: 53.3 s
- APTT [11]: 29.3 s

Compound: H-PKRKLVP-OH [listing 2 of 2 here]
- APTT [12]: 47.1 s
- APTT [13]: 22.1 s
- APTT [14]: 31 s

Compound: CC(C)C[C@H](NC(=O)[C@H](CCCCN)NC(=O)[C@H](CCCN=C(N)N)NC(=O)[C@H](CCCCN)NC(=O)[C@@H]1CCCN1C(=O)[C@@H](N)CCCN)C(=O)N[C@H](C(=O)N1CCC[C@H]1C(=O)O)C(C)C (H-[Orn]PKRKLVP-OH) [listing 2 of 2 here]
- APTT [15]: 22.2 s
- APTT [16]: 28.5 s

Compound: H-PKRKLVP-NH2 [listing 1 of 2 here]
- APTT [17]: 29.8 s
- APTT [18]: 25.5 s
- APTT [19]: 32.4 s
- APTT [20]: 8.8 s
- APTT [21]: 18.8 s
- APTT [22]: 18.6 s
